The source of these data is ChEMBL document CHEMBL1148302, “Discovery of diarylacrylonitriles as a novel series of small molecule sortase A inhibitors” (J Med Chem, 2004).

The assay concerns the target T1, Sortase A (Staphylococcus aureus, UniProt Q9S446).
T1 sequence (Q9S446 whole entry): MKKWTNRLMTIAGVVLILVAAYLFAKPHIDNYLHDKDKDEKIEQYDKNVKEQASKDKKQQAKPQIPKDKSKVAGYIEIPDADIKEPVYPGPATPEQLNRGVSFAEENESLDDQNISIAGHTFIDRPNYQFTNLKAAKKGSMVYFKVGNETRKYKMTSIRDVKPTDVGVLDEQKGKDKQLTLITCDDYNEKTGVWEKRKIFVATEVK
The assay is described as follows: Inhibitory activity towards SrtA (sortase A).
In general, IC50 refers to the midpoint of a concentration-inhibition curve. Low values mean greater potency, high ones weaker potency. In turn, `COc1ccc(/C=C\c2ccc(OC)cc2)cc1` yielded a half-maximal inhibitory concentration (IC50) of over 1000 µM.
Take `COc1ccc(/C(C#N)=C/c2cc(OC)ccc2OC)cc1`: the half-inhibitory concentration (IC50) was 9.24 µM.
With `COc1ccc(/C(C#N)=C/c2ccc(OC)c(OC)c2)cc1`, the IC50 turned out to be 23 µM.
As to `COc1ccc(CCc2ccc(OC)cc2)cc1`, the IC50 is over 1000 µM.
`COc1ccc(/C(C#N)=C/c2ccccc2OC)cc1` gave an IC50 of 36.2 µM.
Compound `COc1ccc(/C=C(/C#N)c2ccc(OC)cc2)cc1` gave a half-inhibitory concentration (IC50) of 187 µM.
With `COc1ccc(/C(C#N)=C/c2cccc(OC)c2)cc1`, the IC50 is 17.4 µM.
`COc1ccc(/C=C(\C#N)c2ccc(OC)cc2)cc1` returned an IC50 of 27.9 µM.
As for `COc1ccc(CC(C#N)c2ccc(OC)cc2)cc1` (stereo unspecified), the half-inhibitory concentration (IC50) was over 1000 µM.
`COc1ccc(/C=C(/C(N)=O)c2ccc(OC)cc2)cc1`: the half-maximal inhibitory concentration (IC50) was determined as 476 µM.
In turn, `COc1ccc(/C(C#N)=C/c2cc(OC)cc(OC)c2)cc1` yielded an IC50 of 25.5 µM.
For the compound `COC(=O)/C(=C\c1ccc(OC)cc1)c1ccc(OC)cc1`, the IC50 worked out at 909 µM.
For the compound `COC(=O)/C(=C/c1ccc(OC)cc1)c1ccc(OC)cc1`, half-maximal inhibition (IC50) was put at 231 µM.
In the case of `COc1ccc(/C=C(/C(=O)O)c2ccc(OC)cc2)cc1`, the IC50 is over 1000 µM.
Consider `COC(=O)C(Cc1ccc(OC)cc1)c1ccc(OC)cc1` (stereo unspecified), for which the IC50 was over 1000 µM.
Consider `COc1ccc(/C=C/c2ccc(OC)cc2)cc1`, for which the IC50 was over 1000 µM.
